Measured values taken from publication PMC7366314 (ACS chemical biology, 2020).

Legend:
[1] = Ex vivo mouse plasma stability testing; assay type: in vitro ADME; settings: for plasma half-life, fold greater than the natural GLP-1 peptide: ex vivo mouse plasma, 10 μM, 37°C, LC/MS/MS
B6 mice = assay: Glucose tolerance test; assay type: in vivo, mouse; settings: B6 mice fasted overnight, 10 nmol/kg IP, glucose 2 g/kg IP 30 min later
Leprdb mice = assay: Anti-hyperglycemic effect in diabetic Leprdb; assay type: in vivo, mouse; settings: single IP injection 10 nmol/kg
proteinase K = proteinase K (Parengyodontium album, UniProt P06873); assay: Peptide proteolysis assay with proteinase K, intact peptide by LC/MS; settings: 50 mM Tris HCl pH 7.4, LC/MS
Chain of proteinase K (P06873 106-384): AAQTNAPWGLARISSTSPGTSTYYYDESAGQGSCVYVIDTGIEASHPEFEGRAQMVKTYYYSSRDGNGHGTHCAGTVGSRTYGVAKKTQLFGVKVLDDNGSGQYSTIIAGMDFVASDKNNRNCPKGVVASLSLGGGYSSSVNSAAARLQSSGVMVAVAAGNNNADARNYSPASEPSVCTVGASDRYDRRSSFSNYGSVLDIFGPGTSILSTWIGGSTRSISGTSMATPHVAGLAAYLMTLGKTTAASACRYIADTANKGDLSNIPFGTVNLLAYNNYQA

Row | Structure (SMILES) | plasma half-life, fold greater than the natural GLP-1 peptide [1] | half-life at 10 µM ([1]; mouse, plasma (freshly drawn, lithium heparin)) | time to euglycemia after the glucose bolus (GTT) (B6 mice) | initial reduction in serum glucose (Leprdb mice; 15 min p=0.0032, 30 min p=0.0001 vs semaglutide) | fold reduction in glucose level compared to vehicle and wild-type GLP-1 (Leprdb mice; sustained for 12 hours, n=8) | fold improvement of proteinase K half-life compared to control (wild-type) GLP-1 (proteinase K)
1 | CC[C@H](C)[C@@H]1NC(=O)[C@H](Cc2ccccc2)NC(=O)[C@H](CCC(=O)O)NC(=O)[C@H](CCCCN)NC(=O)[C@H](C)NC(=O)[C@H](C)NC(=O)[C@@]2(CCCC=CCCCCCC[C@@](C)(NC(=O)[C@H](CC(=O)O)NC(=O)[C@H](CO)NC(=O)[C@@H](NC(=O)[C@H](Cc3ccccc3)NC(=O)[C@@H](NC(=O)CNC(=O)[C@H](CCC(=O)O)NC(=O)C(C)(C)NC(=O)[C@@H](N)Cc3c[nH]cn3)[C@@H](C)O)[C@@H](C)O)C(=O)N[C@@H](CO)C(=O)N[C@@H](CO)C(=O)N[C@@H](Cc3ccc(O)cc3)C(=O)N[C@@H](CC(C)C)C(=O)N[C@@H](CCC(=O)O)C(=O)NCC(=O)N2)CCCC=CCCCCCC[C@@](C)(C(=O)N[C@@H](Cc2c[nH]c3ccccc23)C(=O)N[C@@H](CC(C)C)C(=O)N[C@H](C(=O)N[C@@H](CCCCN)C(=O)NCC(=O)N[C@@H](CCCNC(=N)N)C(N)=O)C(C)C)NC1=O [SAH-GLP-1-A8J(16,23,30)] | 23 fold | 5.33 h | ≤ 60 min | more rapid, initial reduction in serum glucose compared to semaglutide | 2–2.5 fold | over 24 fold
2 | CC[C@H](C)[C@H](NC(=O)[C@H](Cc1ccccc1)NC(=O)[C@H](CCC(=O)O)NC(=O)[C@H](CCCCNC(=O)COCCOCCNC(=O)COCCOCCNC(=O)CC[C@H](NC(=O)CCCCCCCCCCCCCCCCC(=O)O)C(=O)O)NC(=O)[C@H](C)NC(=O)[C@H](C)NC(=O)[C@H](CCC(N)=O)NC(=O)CNC(=O)[C@H](CCC(=O)O)NC(=O)[C@H](CC(C)C)NC(=O)[C@H](Cc1ccc(O)cc1)NC(=O)[C@H](CO)NC(=O)[C@H](CO)NC(=O)[C@@H](NC(=O)[C@H](CC(=O)O)NC(=O)[C@H](CO)NC(=O)[C@@H](NC(=O)[C@H](Cc1ccccc1)NC(=O)[C@@H](NC(=O)CNC(=O)[C@H](CCC(=O)O)NC(=O)C(C)(C)NC(=O)[C@@H](N)Cc1cnc[nH]1)[C@@H](C)O)[C@@H](C)O)C(C)C)C(=O)N[C@@H](C)C(=O)N[C@@H](Cc1c[nH]c2ccccc12)C(=O)N[C@@H](CC(C)C)C(=O)N[C@H](C(=O)N[C@@H](CCCNC(=N)N)C(=O)NCC(=O)N[C@@H](CCCNC(=N)N)C(=O)NCC(=O)O)C(C)C [semaglutide, reference compound] | 12 fold |  |  |  |  | 
